Publication PMC8901753, “An ultrasensitive microfluidic approach reveals correlations between the physico-chemical and biological activity of experimental peptide antibiotics” (Scientific Reports, 2022)

What was measured:
[1] = Single-GUV dye (HPTS) leakage assay, membranolytic activity; conditions: for vesicle survival rate: continuous flow, after 7 h, PBS pH 7.4, mean ± std. dev., 2 independent repeats; for mode of action from time distribution of single-GUV leakage events: 5 and 10 μM peptide
From the text: Given this variability in the cellular responses to treatment, we hypothesized that cell-to-cell differences at the membrane level could underlie the observed heterogeneity in the bacterial responses to these novel peptides. We therefore used anionic giant unilamellar vesicles (GUVs) as highly controlled model membranes to study the membranolytic activity of the bienA and bienK peptides. The vesicles were produced in a microfluidic chip using octanol-assisted liposome assembly (OLA)[40] and made with a 3:1 mixture of 1,2-dioleoyl-sn-glycero-3-phosphocholine (DOPC) and 1,2-dioleoyl-sn-glycero-3- phospho-rac-(1-glycerol) sodium salt (DOPG) to mimic the anionic charge of bacterial membranes[27] (Fig. 4). We note that E. coli membranes are estimated to be ~ 20% PG, and that lipids of the inner membrane in particular contain a high proportion (over 95%) of phospholipids, similar to our phospholipid-based GUV models. The more complex E. coli outer membrane includes both phospholipids and glycolipids. […] In particular, in a direct comparison, AMP induced membrane permeabilisation was similar across GUVs and E. coli inner (cytoplasmic) membranes, albeit with some interesting dissimilarities in a few specific details. In our assay, the GUVs were formed encapsulating a membrane impermeable dye, HPTS (8-hydroxypyrene-1,3,6-trisulfonic acid) and immobilized using an array of physical traps; the peptide solution was then flowed over them using a continuous flow system.
Figure 4 Schematic of the integrated GUV production, trapping and perfusion platform. GUVs are produced using octanol-assisted liposome assembly at a 6-way junction as described elsewhere. Briefly, lipids dissolved in octanol (the “LO” phase) are brought together at the junction with inner aqueous (IA) and outer aqueous (OA) streams, leading to the production of GUVs hosting octanol droplets. The octanol droplets bud off the GUVs downstream. This mixture of GUVs and octanol droplets is distributed into an array of trapping chambers via a connector chip, which additionally facilitates the separation of the GUVs and octanol droplets (for details, please see Al Nahas et al. Lab Chip 2019[27]). The trapped vesicles contain the membrane-impermeable fluorescent dye HPTS. Post-trapping, the GUVs are subjected to a continuous flow of peptides, and the membranolytic efficacy of the peptides is determined by studying the leakage of the fluorescent dye from the interior of the GUVs via video fluorescence microscopy.
We have published detailed protocols for the design, fabrication and operation of the microfluidic device for immobilizing and testing thousands of individual GUVs, which can be found elsewhere[23],[27]. A detailed protocol for the octanol-assisted liposome assembly (OLA) technique of producing GUVs on chip is also available. Briefly, our platform facilitated three procedural steps integrated in a single device. First, the OLA[40] technique was used to prepare GUVs. Next, the GUVs were trapped downstream in arrays of hydrodynamic posts. Finally, the immobilized GUVs were perfused with the desired dose of a peptide. All lipids described in the text were purchased from Avanti Polar Lipids. The GUVs were prepared in sucrose solution (200 mM) with glycerol (15% v/v) in PBS (pH 7.4). The vesicles were formed encapsulating the fluorescent membrane-impermeable dye 8-hydroxypyrene-1,3,6-trisulfonic acid from Thermo Fisher (HPTS, 50 μM). The microfluidic platform was operated by two positive pressure-driven pump modules (MFCS-4C, Fluigent), and a single neMESYS syringe pump module for fluid manipulation. The trapped GUVs were continuously dosed with buffer solution loaded with 5 μM HPTS (as a tracer) and the peptide of interest at 5 or 10 μM concentrations (the stock peptide solutions were prepared in milliQ water as described previously). […]

[2] = system: E. coli BW25113 cells; assay: Mother-machine microfluidics-microscopy single-cell assay; assay type: cell-based, Escherichia coli; conditions: for cell division during peptide treatment / coefficient of variation (CV) in the cell lengths / Lmean 3h (mean cell length normalized to initial cell length) / survival fraction (fraction of wells hosting dividing cells after peptide treatment and overnight LB) / increase in cell length on average before cell death: 10 μM peptide; for cell division during peptide treatment: 3 h, measured per well; for coefficient of variation (CV) in the cell lengths: 3 h time point, susceptible cells, 20 cells from 2 repeats (bienA9: 5 cells, 1 experiment); for Lmean 3h (mean cell length normalized to initial cell length): 3 h time-point, mean ± std. dev.; for Lmean 3h (mean cell length normalized to initial cell length) / increase in cell length on average before cell death: susceptible cells killed before dividing; for survival fraction (fraction of wells hosting dividing cells after peptide treatment and overnight LB): continuous flow 3 h, then LB overnight (17–18 h), stationary phase cells, mean ± std. dev. over 2 biological repeats; for No. of non-dividing survivors at the end of the experiments: 10 M [sic] peptide, cells that did not divide and did not stain with propidium iodide, out of 305–323 initial cells
From the text: The “mother-machine” system (Fig. 1A) enables the physical confinement of individual bacteria in well-controlled microenvironments, where they can be sequentially exposed to nutrients, drugs or viability indicators and the responses studied using time-lapse microscopy[28]–[30]. This technology has been used extensively to study bacterial-drug interactions, using a range of conventional small-molecule antibiotics such as ampicillin, gentamicin, ciprofloxacin (amongst others)[28],[30]–[33], phages[34] as well as novel protein pseudocapsid based antibacterials. Briefly E. coli BW25113 cells were cultured overnight in Lysogeny Broth (LB) at 37 °C to stationary phase and injected into the mother-machine microfluidic device (see “Experimental section” and[28],[29],[31],[32]). We waited for the cells to populate the “wells” of the chip (Fig. 1), following which the trapped cells were challenged with a continuous flow of peptide (10 μM) for 3 h, with images taken hourly. After 3 h of treatment, the cells were provided with fresh LB to study survivors. Post overnight (O/N) LB treatment, dead staining was performed with propidium iodide (PI). Dead cells either lysed or took up PI and appeared bright under fluorescence illumination (Fig. 1B). […] However, the cells that were dividing at the end of the experiment were unambiguously alive. Therefore, we chose to use only these dividing cells in our quantitative analysis discussed below.
Thus, reaching a critical peptide length leads to increased antibacterial activity with the bienA peptides. […] For bienK10 and bienK11, the survival fractions were 56 ± 26% (204 wells, 305 cells) and 31 ± 18% (215 wells, 311 cells) respectively (Fig. 2B), markedly different from the bienA10 and bienA11 results (Fig. 2A). Thus for these bienK peptides, while some individual cells were killed by the peptides, a large number of other clonal relatives survived the exact same conditions, similar to the example shown in Fig. 1. […] Our results reveal important phenotypic variants seemingly oblivious to the effects of these polypeptide antibiotics that are able to grow and divide even during treatment, while their clonal relatives perish. We also observed similar trends when quantifying the cellular division rates in response to the peptides (Fig. 2C,D). […] Again, as with the survival fractions, this peptide length dependence was not observed for the cellular division rates with the bienK series (Fig. 2D).
The Escherichia coli (BW25113) cultures were prepared in 150 mL of Lysogeny Broth (LB; 10 g/L tryptone, 5 g/L yeast extract and 10 g/L NaCl, Melford) with shaking at 200 rpm and incubation at 37 °C overnight (drug dosage during experiments was typically performed around 19–20 h after starting the culture). Prior to seeding in the microfluidic chip, the OD (optical density) of the culture was measured, the cells spun down at 3220g for 5 min and the supernatant filtered twice (0.22 µm, Millipore); this twice filtered supernatant is hereafter referred to as “spent LB”. All OD measurements were carried out at 600 nm. The cell pellet was resuspended in spent LB at an approximate OD of 75; this concentrated stationary phase culture was used when seeding the microfluidic chip with bacteria. Note, the OD of 75 is a theoretical value—we measure the OD of the original stationary phase culture, and calculate the volume of spent LB that the cell pellet (post centrifugation) is to be resuspended in to achieve this OD. In practical terms, one simply needs to concentrate the culture to optimise the efficiency of cells entering the wells of the mother-machine microfluidic device within a 30 min timeframe. We also note that unlike most traditional bulk experiments, we chose to study cells initially seeded in the microfluidic device in stationary phase, in line with previous studies using this platform[30]–[32],[34]. […]

Sequence	vesicle survival rate ([1]; 5 μM peptide) [%]	vesicle survival rate ([1]; 10 μM peptide)	mode of action from time distribution of single-GUV leakage events [1]	cell division during peptide treatment [2]	coefficient of variation (CV) in the cell lengths [2] [%]	Lmean 3h (mean cell length normalized to initial cell length) [2]	survival fraction (fraction of wells hosting dividing cells after peptide treatment and overnight LB) [2]	survival fraction (fraction of wells hosting dividing cells after peptide treatment and overnight LB) ([2]; listed as BienA9)	No. of non-dividing survivors at the end of the experiments [2]	vesicle survival rate ([1]; 10 μM peptide, listed as A10) [%]	increase in cell length on average before cell death [2] [%]	vesicle survival rate ([1]; 10 μM peptide, listed as A11) [%]	survival fraction (fraction of wells hosting dividing cells after peptide treatment and overnight LB) ([2]; listed as A11) [%]
RLLRLALRL [bienA9, ultrashort amphipathic helix peptide with binary encoding by arginine and leucine, alanine at the mutation position]	41 ± 3	19.9 ± 0.5%	bimodal all-or-none mode	did not	17	0.9 ± 0.2	65 ± 11%	over 50%	11				
RLLRLALRLL [bienA10, ultrashort amphipathic helix peptide with binary encoding by arginine and leucine, alanine at the mutation position]	12 ± 2	complete disruption of the entire vesicle population	unimodal “graded” mode of action	immediately and uniformly arrested cell division	16	1.2 ± 0.2	less than 5%		6	0	20		
RLLRLALRLLR [bienA11, ultrashort amphipathic helix peptide with binary encoding by arginine and leucine, alanine at the mutation position]	1 ± 1	complete disruption of the entire vesicle population	unimodal “graded” mode of action	immediately and uniformly arrested cell division	16	1.2 ± 0.2	less than 5%		24		20	0	0
RLLRLKLRL [bienK9, ultrashort amphipathic helix peptide with binary encoding by arginine and leucine, lysine at the mutation position]	41 ± 20	47 ± 7%			44	2.0 ± 0.9			13				
RLLRLKLRLL [bienK10, ultrashort amphipathic helix peptide with binary encoding by arginine and leucine, lysine at the mutation position]	40 ± 7	48 ± 10%			47	2.0 ± 0.9			7				
RLLRLKLRLLR [bienK11, ultrashort amphipathic helix peptide with binary encoding by arginine and leucine, lysine at the mutation position]	70 ± 13	78 ± 4%			48	1.8 ± 0.9	31 ± 18%		1				
